Assay results: US9982005B2, “Macrolides and methods of their preparation and use” (President and Fellows of Harvard College, priority 2013, dated 2018)
Values after ≈ are worked out from the molar mass of the structure shown. Where two headings read alike, the source gives them in different places.

Columns and labels:
Format in all cases: cell-based
[1] = system: EC107 E. coli ATCC25922; assay: broth dilution MIC, E. coli EC107; settings: Escherichia coli, read-out: MIC
Text: (§1) We have collected MIC data for a total of 50 novel macrolides that this platform has produced against over 21 unique strains of B. subtilis, E. coli, S. aureus, S. pneumoniae, and H. influenzae, including several multidrug-resistant strains, with a special focus on macrolide resistant mechanisms (vide supra). Azithromycin was included as a control macrolide. CLSI standard procedures for broth dilution MIC determination were used. […] These genotypes can be constitutive or inducible. The finding that C4-epi (unnatural) isomers of the “azaketolide” macrolide class have enhanced activities relative to C4 natural isomers is very exciting.

[2] = system: EC878 E. coli tolC; assay: broth dilution MIC, E. coli EC878; settings: Escherichia coli
Text: as §1

[3] = system: EC882 E. coli imp; assay: broth dilution MIC, E. coli EC882; settings: Escherichia coli
Text: as §1

[4] = system: BS1725 B. subtilis ermC; assay: broth dilution MIC, B. subtilis BS1725; settings: Bacillus subtilis
Text: as §1

[5] = system: BS1723 B. subtilis BS168 WT wild type; assay: broth dilution MIC, B. subtilis BS1723; settings: Bacillus subtilis, BS1723 B. subtilis BS168 WT wild type; read-out: MIC
Text: as §1

[6] = system: SA101 S. aureus ATCC29213; assay: broth dilution MIC, S. aureus SA101; settings: Staphylococcus aureus, ATCC29213, SA101 S. aureus ATCC29213; read-out: MIC
Text: as §1

[7] = system: K. pneumoniae strains; assay: MIC against K. pneumoniae strains (Table M8); settings: Klebsiella pneumoniae, K. pneumoniae 10031
[8] = system: S. aureus strains; assay: MIC against S. aureus strains (Table M7); settings: Staphylococcus aureus
How it was run: (§2)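 Read-out is the minimum inhibitory concentration, obtained by broth dilution per CLSI standards. The strain panel included multidrug-resistant isolates carrying macrolide-resistance genotypes, which may be constitutive or inducible.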

[9] = system: E. faecalis strains; assay: MIC against E. faecalis strains (Table M8); settings: Enterococcus faecalis, E. faecalis 29212
[10] = system: H. influenzae strains; assay: MIC against H. influenzae strains (Table M8); settings: Haemophilus influenzae
How it was run: as §2

[11] = system: A. baumannii strains; assay: MIC against A. baumannii strains (Table M8); settings: Acinetobacter baumannii, BAA747, A. baumannii BAA747-1
[12] = system: S. pneumoniae strains; assay: MIC against S. pneumoniae strains (Tables M7, M8); settings: Streptococcus pneumoniae
Text: CLSI standard procedures for broth dilution MIC determination were used. […] These genotypes can be constitutive or inducible.

[13] = system: E. coli strains; assay: MIC against E. coli strains (Table M7); settings: Escherichia coli, ATCC25922, E. coli ATCC 25922
How it was run: as §2

[14] = ATCC29213, S. aureus ATCC 29213, read-out: MIC S. aureus (ATCC 29213)
[15] = S. aureus 183, read-out: MIC S. aureus (183)
[16] = S. aureus 506, read-out: MIC S. aureus (506)
[17] = S. aureus 1708, read-out: MIC S. aureus (1708)
[18] = USA300, S. aureus USA300, read-out: MIC S. aureus (USA300)
[19] = H. influenzae 49247, read-out: MIC H. influenzae (49247)
[20] = H. influenzae 49766, read-out: MIC H. influenzae (49766)
[21] = S. pneumoniae 160, read-out: MIC S. pneumonae (160)
[22] = S. pneumoniae 1509, read-out: MIC S. pneumoniae (1509)
[23] = S. pneumoniae 1533, read-out: MIC S. pneumoniae (1533)
[24] = S. pneumoniae 1537, read-out: MIC S. pneumoniae (1537)
[25] = S. pneumoniae 49619, read-out: MIC S. pneumoniae (49619)

| Structure (SMILES) | MIC [1] | MIC [2] | MIC [3] | MIC ([4]; BS1725 B. subtilis ermC (+ery)) | MIC ([4]; BS1725 B. subtilis ermC (−ery)) | MIC [5] | MIC [6] | MIC [7] | MIC [8, 14] | MIC [8, 15] | MIC [8, 16] | MIC [8, 17] | MIC [8, 18] | MIC [9] | MIC [10, 19] | MIC [10, 20] | MIC [11] | MIC [12, 21] | MIC [12, 22] | MIC [12, 23] | other results |
| --- | --- | --- | --- | --- | --- | --- | --- | --- | --- | --- | --- | --- | --- | --- | --- | --- | --- | --- | --- | --- | --- |
| CC[C@H]1OC(=O)[C@](C)(F)C(=O)C[C@@H](O[C@@H]2OC(C)CC(N(C)C)C2O)[C@](C)(OC)C[C@@H](C)CN[C@H](C)[C@H]2N(CCCCn3cc(-c4cccc(N)c4)nn3)C(=O)O[C@]12C (stereo partly drawn) [FSM-10661] | > 32 µg/mL | 16 µg/mL (≈ 19.2 µM) | 2 µg/mL (≈ 2.4 µM) | > 32 µg/mL | > 32 µg/mL | > 32 µg/mL | > 32 µg/mL |  |  |  |  |  |  |  |  |  |  |  |  |  |  |
| CC[C@H]1OC(=O)[C@](C)(F)C(=O)C[C@@H](O[C@@H]2OC(C)CC(N(C)C)C2O)[C@](C)(OC)C[C@@H](C)CN[C@H](C)[C@H]2N(CCCCn3cc(-c4ccccn4)nn3)C(=O)O[C@]12C (stereo partly drawn) [FSM-10662] | > 32 µg/mL | 16 µg/mL (≈ 19.6 µM) | 4 µg/mL (≈ 4.89 µM) | > 32 µg/mL | > 32 µg/mL | > 32 µg/mL | > 32 µg/mL |  |  |  |  |  |  |  |  |  |  |  |  |  |  |
| CC[C@H]1OC(=O)[C@](C)(F)C(=O)C[C@@H](O[C@@H]2OC(C)CC(N(C)C)C2O)[C@](C)(OC)C[C@@H](C)CN[C@H](C)[C@H]2N(CCCCn3cc(-c4nccs4)nn3)C(=O)O[C@]12C (stereo partly drawn) [FSM-10666] | > 32 µg/mL | 16 µg/mL (≈ 19.4 µM) | 4 µg/mL (≈ 4.85 µM) | > 32 µg/mL | > 32 µg/mL | > 32 µg/mL | > 32 µg/mL |  |  |  |  |  |  |  |  |  |  |  |  |  |  |
| CC[C@H]1OC(=O)[C@](C)(F)C(=O)C[C@@H](O[C@@H]2OC(C)CC(N(C)C)C2O)[C@](C)(OC)C[C@@H](C)CN[C@H](C)[C@H]2N(CCCCn3cc(-c4cccnn4)nn3)C(=O)O[C@]12C (stereo partly drawn) [FSM-10667] | > 32 µg/mL | 16 µg/mL (≈ 19.5 µM) | 4 µg/mL (≈ 4.88 µM) | > 32 µg/mL | > 32 µg/mL | > 32 µg/mL | > 32 µg/mL |  |  |  |  |  |  |  |  |  |  |  |  |  |  |
| CC[C@H]1OC(=O)[C@](C)(F)C(=O)C[C@@H](O[C@@H]2OC(C)CC(N(C)C)C2O)[C@](C)(OC)C[C@@H](C)CN[C@H](C)[C@H]2N(CCCCn3cc(-c4nc5ccccc5s4)nn3)C(=O)O[C@]12C (stereo partly drawn) [FSM-10671] | > 32 µg/mL | 32 µg/mL (≈ 36.6 µM) | 8 µg/mL (≈ 9.15 µM) | > 32 µg/mL | > 32 µg/mL | > 32 µg/mL | > 32 µg/mL |  |  |  |  |  |  |  |  |  |  |  |  |  |  |
| CC[C@H]1OC(=O)[C@H](C)C(=O)C[C@@H](O[C@@H]2OC(C)CC(N(C)C)C2O)[C@](C)(OC)C[C@@H](C)CN[C@H](C)[C@H]2N(CCCCn3cc(-c4cccnn4)nn3)C(=O)O[C@]12C (stereo partly drawn) [FSM-10785] | > 32 µg/mL | 2 µg/mL (≈ 2.5 µM) | 1 µg/mL (≈ 1.25 µM) | > 32 µg/mL | > 32 µg/mL | > 32 µg/mL | > 32 µg/mL |  |  |  |  |  |  |  |  |  |  |  |  |  |  |
| CC[C@H]1OC(=O)[C@H](C)C(=O)C[C@@H](O[C@@H]2OC(C)CC(N(C)C)C2O)[C@](C)(OC)C[C@@H](C)CN[C@H](C)[C@H]2N(CCCCn3cc(-c4ccccn4)nn3)C(=O)O[C@]12C (stereo partly drawn) [FSM-10786] | > 32 µg/mL | 2 µg/mL (≈ 2.5 µM) | 0.25 µg/mL (≈ 0.312 µM) | > 32 µg/mL | > 32 µg/mL | > 32 µg/mL | > 32 µg/mL |  |  |  |  |  |  |  |  |  |  |  |  |  |  |
| CC[C@H]1OC(=O)[C@H](Cc2cncs2)C(=O)[C@H](C)[C@@H](O[C@@H]2OC(C)CC(N(C)C)C2O)[C@](C)(OC)C[C@@H](C)CN[C@H](C)[C@H]2N(CCCCn3cc(-c4cccc(N)c4)nn3)C(=O)O[C@]12C (stereo partly drawn) [FSM-56216] |  |  |  |  |  |  |  | 8 µg/mL (≈ 8.78 µM) | 32 µg/mL (≈ 35.1 µM) | > 32 µg/mL | > 32 µg/mL | 16 µg/mL (≈ 17.6 µM) | 32 µg/mL (≈ 35.1 µM) | 8 µg/mL (≈ 8.78 µM) | 4 µg/mL (≈ 4.39 µM) | 16 µg/mL (≈ 17.6 µM) | > 32 µg/mL | 2 µg/mL (≈ 2.19 µM) | 32 µg/mL (≈ 35.1 µM) | > 32 µg/mL | MIC [12, 24]: > 32 µg/mL; MIC [12, 25]: 1 µg/mL (≈ 1.1 µM); MIC [13]: 32 µg/mL (≈ 35.1 µM) |
| CC[C@H]1OC(=O)[C@H](C)C(=O)[C@H](C)[C@@H](O[C@@H]2OC(C)CC(N(C)C)C2O)[C@](C)(OC)C[C@@H](C)CN[C@H](Cc2ccccc2)[C@H]2N(CCCCn3cc(-c4cccc(N)c4)nn3)C(=O)O[C@]12C (stereo partly drawn) [FSM-60353] |  |  |  |  |  |  |  | 8 µg/mL (≈ 8.85 µM) | 0.5 µg/mL (≈ 0.553 µM) | > 32 µg/mL | > 32 µg/mL | 0.5 µg/mL (≈ 0.553 µM) | 0.5 µg/mL (≈ 0.553 µM) | 0.25 µg/mL (≈ 0.276 µM) | 2 µg/mL (≈ 2.21 µM) | 8 µg/mL (≈ 8.85 µM) | 32 µg/mL (≈ 35.4 µM) | ≤ 0.0625 µg/mL | 1 µg/mL (≈ 1.11 µM) | 32 µg/mL (≈ 35.4 µM) | MIC [12, 24]: 32 µg/mL (≈ 35.4 µM); MIC [12, 25]: ≤ 0.0625 µg/mL; MIC [13]: 32 µg/mL (≈ 35.4 µM) |
| CC[C@H]1OC(=O)[C@H](C)C(=O)[C@H](C)[C@@H](O[C@@H]2OC(C)CC(N(C)C)C2O)[C@](C)(OC)C[C@@H](C)CN[C@H](Cc2cccc(Br)c2)[C@H]2N(CCCCn3cc(-c4cccc(N)c4)nn3)C(=O)O[C@]12C (stereo partly drawn) [FSM-60415] |  |  |  |  |  |  |  | > 32 µg/mL | 2 µg/mL (≈ 2.03 µM) | > 32 µg/mL | > 32 µg/mL | 2 µg/mL (≈ 2.03 µM) | 2 µg/mL (≈ 2.03 µM) | 2 µg/mL (≈ 2.03 µM) | 8 µg/mL (≈ 8.14 µM) | 32 µg/mL (≈ 32.6 µM) | > 32 µg/mL | 0.5 µg/mL (≈ 0.509 µM) | 4 µg/mL (≈ 4.07 µM) | 32 µg/mL (≈ 32.6 µM) | MIC [12, 24]: 32 µg/mL (≈ 32.6 µM); MIC [12, 25]: 0.5 µg/mL (≈ 0.509 µM); MIC [13]: > 32 µg/mL |
| CC[C@H]1OC(=O)[C@H](C)C(=O)[C@H](C)[C@@H](O[C@@H]2OC(C)CC(N(C)C)C2O)[C@](C)(OC)C[C@@H](C)CN[C@H](C)[C@H]2N(C/C=C/Cn3cc(-c4ccccn4)nn3)C(=O)O[C@]12C (stereo partly drawn) [FSM-70153] |  |  |  |  |  |  |  | 2 µg/mL (≈ 2.46 µM) | 1 µg/mL (≈ 1.23 µM) | > 32 µg/mL | > 32 µg/mL | 4 µg/mL (≈ 4.93 µM) | 2 µg/mL (≈ 2.46 µM) | 0.25 µg/mL (≈ 0.308 µM) | 0.5 µg/mL (≈ 0.616 µM) | 2 µg/mL (≈ 2.46 µM) | 16 µg/mL (≈ 19.7 µM) | 0.125 µg/mL (≈ 0.154 µM) | 4 µg/mL (≈ 4.93 µM) | > 32 µg/mL | MIC [12, 24]: > 32 µg/mL; MIC [12, 25]: ≤ 0.0625 µg/mL; MIC [13]: 4 µg/mL (≈ 4.93 µM) |
| CN(C)c1ccc(O)c2c1C[C@H]1C[C@H]3[C@H](N(C)C)C(O)=C(C(N)=O)C(=O)[C@@]3(O)C(O)=C1C2=O [Minocycline, minocycline, reference compound] |  |  |  |  |  |  |  | 0.5 µg/mL (≈ 1.09 µM) | 0.25 µg/mL (≈ 0.546 µM) | 16 µg/mL (≈ 35 µM) | 2 µg/mL (≈ 4.37 µM) | 0.5 µg/mL (≈ 1.09 µM) | 0.25 µg/mL (≈ 0.546 µM) | 8 µg/mL (≈ 17.5 µM) | 4 µg/mL (≈ 8.74 µM) | 8 µg/mL (≈ 17.5 µM) | 0.5 µg/mL (≈ 1.09 µM) | 8 µg/mL (≈ 17.5 µM) | 16 µg/mL (≈ 35 µM) | 8 µg/mL (≈ 17.5 µM) | MIC [12, 24]: 8 µg/mL (≈ 17.5 µM); MIC [12, 25]: 0.25 µg/mL (≈ 0.546 µM); MIC [13]: 1 µg/mL (≈ 2.19 µM) |
